# Results: PubChem BioAssay (NCI)
#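 Grown in 96-well plates, cells were treated for 48 hours with each compound at five concentrations. Insufficient inhibition: endpoint recorded as highest concentration tested. Abbreviation: GI50, concentration required for 50% inhibition of growth. TGI: concentration producing complete growth inhibition.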
# How the values were obtained:
# Test in all cases: NCI-60 cell line screen, 48 h
# CAKI-1 renal = tested on: CAKI-1 renal
# K-562 leukemia = tested on: K-562 leukemia
# CCRF-CEM leukemia = tested on: CCRF-CEM leukemia
# OVCAR-5 ovarian = tested on: OVCAR-5 ovarian
# HL-60(TB) leukemia = tested on: HL-60(TB) leukemia
# LOX IMVI melanoma = tested on: LOX IMVI melanoma
# UACC-257 melanoma = tested on: UACC-257 melanoma
# RXF 393 renal = tested on: RXF 393 renal
# SNB-75 CNS = tested on: SNB-75 CNS
# HOP-62 NSCLC = tested on: HOP-62 NSCLC
Structure (SMILES),GI50 (CAKI-1 renal),TGI (CAKI-1 renal),GI50 (K-562 leukemia),TGI (K-562 leukemia),GI50 (CCRF-CEM leukemia),TGI (CCRF-CEM leukemia),GI50 (OVCAR-5 ovarian),TGI (OVCAR-5 ovarian),GI50 (HL-60(TB) leukemia),TGI (HL-60(TB) leukemia),GI50 (LOX IMVI melanoma),TGI (LOX IMVI melanoma),GI50 (UACC-257 melanoma),TGI (UACC-257 melanoma),GI50 (RXF 393 renal),TGI (RXF 393 renal),GI50 (SNB-75 CNS),TGI (SNB-75 CNS),GI50 (HOP-62 NSCLC),TGI (HOP-62 NSCLC)
C1=C(c2ccccc2)C(c2ccc(OCCN3CCCCC3)cc2)Oc2ccccc21 (stereo not given),1.34 µM,2.75 µM,1.53 µM,3.38 µM,2.46 µM,6.46 µM,1.61 µM,3.29 µM,1.73 µM,3.76 µM,1.65 µM,3.01 µM,2.02 µM,4.15 µM,1.61 µM,3.11 µM,1.6 µM,3.44 µM,1.67 µM,3.29 µM
O=C(Nc1cccc(O)c1)c1cccc(NC2=C(Cl)C(=O)N(Cc3ccccc3)C2=O)c1,0.318 µM,0.806 µM,1.51 µM,28.4 µM,0.513 µM,> 100 µM,12.1 µM,28 µM,4.88 µM,27.9 µM,11.1 µM,23.1 µM,14 µM,31.8 µM,14.8 µM,42.3 µM,18.4 µM,36.3 µM,19.2 µM,33.6 µM
CC(C)(C)[Si](C)(C)OCC1C=CC(n2cnc3c(N)ncnc32)O1 (stereo not given),,> 100 µM,,54 µM,,39.8 µM,,> 100 µM,,40.3 µM,,> 64 µM,,98.4 µM,,73 µM,,> 81 µM,,> 100 µM
